Residues, ends and D or L forms follow the SMILES beside them. *: point of attachment. Boc = CC(C)(C)OC(=O)*
Columns and labels:
[1] = system: DK1622-wt; assay: Agglutination assay in liquid culture; format: cell-based, Myxococcus xanthus; details: for dose dependence of flocculation/agglutination: 1~50 mg/L; for ability to induce agglutination (SAR): each compound added at 5 mg/L
Experimental: (§1) The agglutination assay basically followed the method described by Velicer.[62] Briefly, DK1622 strains were cultured in CTT medium, whereas SDU70 strains were cultured in VY/2 medium. The aggregation-inducing compounds were added together with the initial inocula. After 3 days of growth, ∼2 mL of liquid cultures (in logarithmic growth stage) were transferred into cuvettes. Samples were left static for 15 min to visualize the clumping phenomenon. To plot the agglutination curves, the absorbance readings (600 nm) were measured on a UV-8000 spectrophotometer at differential intervals within 4 h. Decreasing the absorbance represents the settling of agglutinated cell clumps. Data points are the means of three replicates per strain.

[2] = system: SDU70-ΔcorA; assay: Agglutination assay in liquid culture; format: cell-based, Corallococcus exiguus; details: for dose dependence of flocculation/agglutination: 1~50 mg/L; for ability to induce agglutination (SAR): each compound added at 5 mg/L
Experimental: as §1

[3] = system: SDU70-ΔcorA-corB; assay: Agglutination assay of corB-overexpression mutant; format: cell-based, Corallococcus exiguus; details: for morphology on induction: 5 mg/L; for clumping: as high as 50 mg/L
Experimental: as §1

[4] = system: SDU70-corB; assay: Agglutination assay of corB-overexpression mutant; format: cell-based, Corallococcus exiguus; details: as high as 50 mg/L
Experimental: as §1

[5] = system: DK1622-corB; assay: Agglutination assay of corB-overexpression mutant; format: cell-based, Myxococcus xanthus; details: for agglutination induced by exogenous addition, in corB-overexpressing strain: 5 mg/L; for threshold concentration causing visible flocculation of DK1622-corB relative to DK1622-wt: 1 or 1b′ (Figures S12–S14)
Experimental: as §1

[6] = molecular target: cathepsin L (Homo sapiens, UniProt P07711); assay: Protease inhibition assay (z-FR-AMC proteolysis); format: biochemical; details: compounds 0~500 μM, pre-incubated 60 min at 37 °C, pH 5.5; read-out: inhibition activity against protease cathepsin L, IC50
Sequence of cathepsin L (P07711 114-333, species assumed): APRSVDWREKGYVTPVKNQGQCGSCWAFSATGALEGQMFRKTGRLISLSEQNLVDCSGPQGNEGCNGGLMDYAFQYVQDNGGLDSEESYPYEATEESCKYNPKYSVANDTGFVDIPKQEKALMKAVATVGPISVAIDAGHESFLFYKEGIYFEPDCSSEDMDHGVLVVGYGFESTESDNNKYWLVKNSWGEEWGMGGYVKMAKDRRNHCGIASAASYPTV
Experimental: (§2) The white needle crystals of 2 were obtained from MeOH solvent by slowly volatilizing in a glass vial under ambient condition. The X-ray diffraction measurement of crystals basically followed our previously published method.1 The crystallographic data for 2 was summarized […]6, and deposited in CCDC database under the access number 2278050. Antibacterial Assay. The antibacterial assay was performed by agar diffusion method.2 Single colony of Gram-positive bacteria Staphylococcus aureus, Gram-negative bacterium Acinetobacter baumannii, and fungus Candida albicans were picked and inoculated into 8 mL of LB liquid medium for overnight growth at 37 °C, respectively. Next day, the cultures were 100-fold diluted to 1x10^7 CFU/mL with fresh LB liquid medium, to grow at 37 °C until OD600 0.4~0.6. Compounds 1 and 2 were dissolved […] The disks were then placed onto an agar plate containing a soft agar overlay with the indicator microorganisms. […] MES, 5 mM DTT, pH 5.5) was detected by proteolysis of fluorescent substrate z-FR-AMC. […] The absorbance was measured by microplate reader (Spectra max GEMINI XPS, excitation wavelength 380 nm, emission wavelength 460 nm). […] The mixture was centrifuged at 12000 rpm for 20 minutes, and the supernatant was subsequently analyzed HPLC-DAD. […] The resulting samples were collected by capillary tubes and analyzed by Microscale Thermophoresis (Monolith NT.115). […]

[7] = Cytotoxic activity on human cell lines; format: cell-based; details: A549 lung carcinoma cells, mean value of three replicates
[8] = Cytotoxic activity on human cell lines; format: cell-based; details: PC3 prostatic carcinoma cells, mean value of three replicates
[9] = Cytotoxic activity on human cell lines; format: cell-based; details: KYSE410 esophageal squamous carcinoma cells, mean value of three replicates
[10] = Cytotoxic activity on human cell lines; format: cell-based; details: HepG2 hepatocarcinoma cells, mean value of three replicates
[11] = system: four human cell lines; assay: Antiproliferative activity, summary statement; format: cell-based; details: four human cell lines (Table S2)
[12] = system: CorB; assay: MST assay of CorB to coralinone A; format: binding, Corallococcus exiguus SDU70; details: 15.2 μM to 0.5 mM test compound
Experimental: as §2

[13] = system: DK1622; assay: Confocal laser scanning microscopy of cells and EPS; format: cell-based, Myxococcus xanthus; details: DK1622+1
Experimental: The microscopic observation of SDU70 and DK1622 basically followed our recently published methods.[63]Scanning electron microscopy (SEM): DK1622 and SDU70 strains (wild type and mutants) were grown to logarithmic stage. The cells were washed three times with 1× PBS buffer and then fixed overnight at 4 °C in 2.5% glutaraldehyde solution. Samples were prepared using the standard ethanol dehydration method,[62] and observed by QUANTA FEG250 scanning electron microscope (Thermo Fisher Scientific, USA). Confocal laser scanning microscopy (CLSM): DK1622 strains were grown in CTT liquid medium for 24 h, while SDU70 strains were grown in VY/2 medium for 72 h. The presence of EPS, eDNA dead cells, and alive cells were labeled with Alexa 350-labeled wheat germ lectin (WGA), SYTOX Orange, and STYO 9, respectively. The images were taken on LSM 900 CLSM (Zeiss, Germany), using 63× oil immersed objective lens. The CLSM images were captured by ZEN software (Zeiss, Germany) and exported by using ImageJ software.

[14] = system: Candida albicans; assay: Agar diffusion assay against fungus; format: cell-based; details: 50 μg/disc
Experimental: as §2

[15] = system: DK1622-wt; assay: Trypan blue binding assay of EPS production; format: cell-based, Myxococcus xanthus; details: DK1622-wt supplemented with 5 mg/L
Experimental: Exopolysaccharide (EPS) production was measured according to the method published by Black et al.[64] Briefly, wild type and mutant strains of DK1622 were inoculated in liquid CTT medium and incubated for 24 h at 30 °C and 200 rpm. The cells grown to the logarithmic phase were collected by centrifugation, and the supernatants were discarded. Cells were resuspended and adjusted to a density of 5 × 10^8 CFU/mL with TPM buffer (1.97 g/L MgSO4·7H2O, 1 M Tris-HCl, 10 mL 0.1 M PBS, pH 7.6). Next, the cell suspension was evenly mixed with an equal volume of Trypan Blue dye solution (150 μg/mL), and TPM buffer was used as a blank control. The supernatant was centrifuged at 12000 rpm for 5 min, and 200 μL was used for the absorbance measurement at 585 nm. Each experiment was performed in triplicate.

[16] = system: Acinetobacter baumannii; assay: Antibacterial assay, agar diffusion method; format: cell-based; details: 50 μg/disc
Experimental: (§3) The white needle crystals of 2 were obtained from MeOH solvent by slowly volatilizing in a glass vial under ambient condition. The X-ray diffraction measurement of crystals basically followed our previously published method.1 The crystallographic data for 2 was summarized […]6, and deposited in CCDC database under the access number 2278050. Antibacterial Assay. The antibacterial assay was performed by agar diffusion method.2 Single colony of Gram-positive bacteria Staphylococcus aureus, Gram-negative bacterium Acinetobacter baumannii, and fungus Candida albicans were picked and inoculated into 8 mL of LB liquid medium for overnight growth at 37 °C, respectively. Next day, the cultures were 100-fold diluted to 1x10^7 CFU/mL with fresh LB liquid medium, to grow at 37 °C until OD600 0.4~0.6. Compounds 1 and 2 were dissolved […] The disks were then placed onto an agar plate containing a soft agar overlay with the indicator microorganisms. Kanamycin (for S. aureus) and apramycin (for C. albicans and E. coli) at a concentration of 1 mg/mL were used as positive controls, and the solvent methanol as the negative control. […] Protease inhibition assay. […] MES, 5 mM DTT, pH 5.5) was detected by proteolysis of fluorescent substrate z-FR-AMC. Enzyme was pre- incubated with a gradient concentration (0~500 μM) of compounds for 60 min at 37 °C in a black 96-well plate. Then, 20 μM of z-FR-AMC was added to each well to make up 200 μ[…] , and the reaction continued for another 30 min. The absorbance was measured by microplate reader (Spectra max GEMINI XPS, excitation wavelength 380 nm, emission wavelength 460 nm). The protease inhibitor E-64 was used as positive control and DMSO was the negative control. All the experiments were completed in triplicate. Enzymatic cleavage of 1 and 1b' using CorB. The reaction was conducted in a 50 μL system comprising of 20 mM Tris-HCl buffer (pH 7.5), 150 mM NaCl, 0.22 mM CorB, and 0.05 mg 1, or 1b' (dissolved in DMSO) respectively. Tris-HCl buffer was used as a negative control, and all experiments were repeated in triplicates. The reactions were incubated at 37 °C for 12 hours and then terminated by adding 50 μL of MeOH. The mixture was centrifuged at 12000 rpm for 20 minutes, and the supernatant was subsequently analyzed HPLC-DAD. MST assay. The purified CorB was mixed with an equal volume of RED-tris-NTA dye solution and incubated in the dark for 30 min, centrifuged at 12000 rpm, 4 °C for 10 min. Then, 10 μL of the CorB-dye complex was mixed with an equal volume of test compound solution ranging from 15.2 μM to 0.5 mM. The resulting samples were collected by capillary tubes and analyzed by Microscale Thermophoresis (Monolith NT.115). 4

[17] = system: Staphylococcus aureus; assay: Antibacterial assay, agar diffusion method; format: cell-based; details: 50 μg/disc
Experimental: as §3

Row | Structure (SMILES) | dose dependence of flocculation/agglutination [1] | ability to induce agglutination (SAR) [1] | dose dependence of flocculation/agglutination [2] | ability to induce agglutination (SAR) [2] | morphology on induction [3] | clumping [3] | clumping [4] | agglutination induced by exogenous addition, in corB-overexpressing strain [5] | threshold concentration causing visible flocculation of DK1622-corB relative to DK1622-wt [5] | IC50 [7] | IC50 [8] | IC50 [9] | IC50 [10] | antiproliferative activities [11] | growth inhibition [14] | growth inhibition [16] | growth inhibition [17] | also measured
1 | CC(=O)[C@@H](NC(=O)[C@H](CC(C)C)NC(=O)OC(C)(C)C)C(C)C [1b′] | dose-dependent manner | effective | dose-dependent manner | effective | maintained the dispersed morphology | did not clump | did not clump | substantially abated agglutination | 3–4 times |  |  |  |  |  |  |  |  | 
2 | CC(C)C[C@H](NC(=O)OC(C)(C)C)C(=O)N[C@H](C=O)C(C)C [10b′] (Boc-Leu-Val-aldehyde) |  |  |  |  |  |  |  |  |  |  |  |  |  |  |  |  |  | IC50 [6]: 0.23 µM
3 | CC(=O)O[C@@]12CO[C@@H]1C[C@H](O)[C@@]1(C)C(=O)[C@H](O)C3=C(C)[C@@H](OC(=O)[C@H](O)[C@@H](NC(=O)OC(C)(C)C)c4ccccc4)C[C@@](O)([C@@H](OC(=O)c4ccccc4)[C@H]21)C3(C)C [Docetaxel, reference compound] |  |  |  |  |  |  |  |  |  | 33.1 µM | 71.9 µM | 17.8 µM | 10.3 µM |  |  |  |  | 
4 | Cc1nc(CC(C)C)c(=O)[nH]c1C(C)C [compound 1, coralinone A] | dose-dependent manner | effective | dose-dependent manner | effective | maintained the dispersed morphology | did not clump | did not clump | substantially abated agglutination | 3–4 times | 383 µM | 796 µM | 463 µM | 892 µM | Neither 1 nor 2 showed any significant antiproliferative activities | No growth inhibition | No growth inhibition | No growth inhibition | flocculation at 5 mg/L in dose series ([1]; 5 mg/L): severe flocculation; flocculation on exogenous supplementation ([1]; 5 mg/L, liquid culture): led to flocculation; concentration that started to be active in causing flocculation ([1]; dose series 1~50 mg/L): 2 mg/L; binding to CorB (MST) [12]: did not disturb CorB-dye binding; EPS production (Alexa 350-WGA blue signal in Merge photos) [13]: higher production of EPS; flocculation at 5 mg/L in dose series ([2]; 5 mg/L): severe flocculation; restoration of pellet morphogenesis by chemical complementation ([2]; 5 mg/L, shaken liquid culture): restored; concentration that started to be active in causing flocculation ([2]; dose series 1~50 mg/L): 2 mg/L; EPS production [15]: cumulation of EPS
5 | CC[C@H](C)c1[nH]c(=O)c(CC(C)C)nc1C [compound 2, coralinone B] |  |  |  |  |  |  |  |  |  | 145 µM | 432 µM | 312 µM | 504 µM | Neither 1 nor 2 showed any significant antiproliferative activities | No growth inhibition | No growth inhibition | No growth inhibition | 

— publication PMC10979478, “Deciphering the Biosynthesis and Physiological Function of 5-Methylated Pyrazinones Produced by Myxobacteria” (ACS Central Science, 2024)
